Here are results for 121 molecules from the SangsterLogP compilation.

A short description of the first series: method code SF, from Hansch, C. & Leo, A. (1987). Log P database [Dataset]. Pomona College Medicinal Chemistry Project.
Conditions: not given
In the case of `CCCC(C(=O)OCCN(CC)CC)(c1ccccc1)c1ccccc1`, the logP worked out at 4.65.

`CCCCNC` yielded a logP of 1.33.

In the case of `COc1ccccc1N`, the logP was determined as 1.18.

For `O=[N+]([O-])CCc1ccccc1`, the lipophilicity (logP) amounted to 2.08.

In turn, `O=C(O)COc1ccc(F)c(I)c1` yielded a logP of 2.42.

`CCOC(=O)C(=Cc1cccc([N+](=O)[O-])c1)C(=O)OCC`: the log partition coefficient (logP) was 2.71.

With `CNC(=O)Oc1cc(C)c(Cl)cc1Cl`, the logP stood at 3.

`O=C(CNC(=O)c1ccccc1)Oc1ccc(F)cc1` gave a logP of 2.46.

Molecule `O=C(Nc1ccccc1)c1cc(N2CC2)c([N+](=O)[O-])cc1[N+](=O)[O-]` yielded a logP of 2.23.

`NC(=O)c1cccc([N+](=O)[O-])c1` returned a logP of 0.77.

Regarding `Cc1csc(C=Cc2ccc([N+](=O)[O-])o2)n1`, the logP is 1.53.

In turn, `CCCCCCCCN(CCCCCCCC)N=Cc1c2c(O)c3c(O)c(C)c4c(c3c1O)C(=O)C(C)(O/C=C\C(OC)C(C)C(OC(C)=O)C(C)C(O)C(C)C(O)C(C)/C=C\C=C(\C)C(=O)N2)O4` (stereo unspecified) yielded a logP of 3.6.

`NNC(=O)c1ccccc1` gave a logP of 0.21.

In turn, `CCOP(=O)(OCC)Oc1ccc(SC)c(Cl)c1` had a logP of 3.48.

Regarding `CN(N=O)C(=O)N[C@H]1C(O)O[C@H](CO)[C@@H](O)[C@@H]1O` (stereo partly specified), the logP is -1.45.

`Nc1ccccc1Br`: the logP turned out to be 2.11.

In the case of `CCCN(CCC)/N=C/c1c2c(O)c3c(O)c(C)c4c(c3c1O)C(=O)C(C)(O/C=C\C(OC)C(C)C(OC(C)=O)C(C)C(O)C(C)C(O)C(C)/C=C\C=C(C)C(=O)N2)O4` (stereo unspecified), the logP was 3.83.

`CCC(C)NC(=O)C=Cc1ccc(Cl)cc1` (stereo unspecified): the logP worked out at 3.37.

`O=[N+]([O-])c1ccc(O[C@@H]2O[C@H](CO)[C@@H](O[C@H]3O[C@H](CO)[C@@H](O)[C@H](O)[C@H]3O)[C@H](O)[C@H]2O)cc1`: the logP is -1.39.

On to `Brc1ccccn1`, for which the lipophilicity (logP) was 1.42.

In turn, `CC1CCCCC1(C)NC(=O)N(CCCl)N=O` (stereo unspecified) showed a logP of 2.57.

Molecule `O=C(NC1CC1)c1cc(N2CC2)c([N+](=O)[O-])cc1[N+](=O)[O-]` came in with a logP of 0.74.

For `Sc1ncccn1`, the logP was -0.97.

In turn, `O=C(O)c1ccoc1` had a logP of 1.03.

In turn, `COc1ccc(-c2nc3cnccc3[nH]2)c(OCCCCl)c1` came in with a log partition coefficient (logP) of 3.53.

As for `CCCCC(=O)c1ccc[nH]1`, the lipophilicity (logP) was determined as 2.42.

Take `CC(=O)c1ccco1`: the lipophilicity (logP) came out at 0.52.

Regarding `CCOC(=O)CNCCCCCSc1c2[nH]cnc2nc[n+]1[O-]`, the log partition coefficient (logP) turned out to be 0.87.

`CCOC(=O)N=[N+]([O-])c1ccccc1`: the logP was 2.53.

For the molecule `CC(C)CN(CC(C)C)C(=O)C=Cc1ccc2c(c1)OCO2`, the logP came out at 4.37.

On to `N#CN=[N+]([O-])c1ccc([N+](=O)[O-])cc1`, for which the logP is 1.51.

Turning to `O=C(OCCOCCO)c1ccccc1`, the logP stood at 1.16.

The molecule `Brc1cccs1` yielded a log partition coefficient (logP) of 2.75.

The molecule `COc1cccc(C=C(C(C)=O)C(C)=O)c1` showed a lipophilicity (logP) of 1.79.

`COc1ccc2c(=O)c(C)c(C(C)C)oc2c1`: the lipophilicity (logP) came to 3.39.

Molecule `O=S(=O)(Nc1cn[nH]c1)c1ccccc1` gave a logP of 0.87.

For `CCNC(=S)Nc1ccccc1`, the lipophilicity (logP) is 1.42.

The molecule `CC(=O)Nc1ccc2oc(C)c(C)c(=O)c2c1` returned a logP of 1.79.

Consider `NC(=O)c1ccccc1Br`, for which the logP came to 0.73.

`CCN(CC)C(C)CN1c2ccccc2Sc2ccccc21` (stereo unspecified) gave a logP of 4.77.

In turn, `O=C(NN=Cc1ccccc1)c1ccccc1` displayed a logP of 2.56.

Consider `COc1cccc(OC)c1`, for which the log partition coefficient (logP) was found to be 2.21.

Turning to `COC(=O)CCC(=O)N(C)c1ccc(S(=O)(=O)N(C)C)cc1`, the logP turned out to be 0.43.

Take `O=C(O)CNc1ccccc1`: the logP was 0.62.

Regarding `CSSC`, the lipophilicity (logP) was 1.77.

On to `Oc1ccccc1-c1ccccc1`, for which the lipophilicity (logP) is 3.09.

`COc1cccc([N+]([O-])=NC#N)c1` gave a logP of 2.24.

`CCCCCc1ccc(O)cc1`: the logP came to 4.06.

Regarding `NC(=O)COc1ccccc1`, the log partition coefficient (logP) came to 0.76.

In turn, `O=C(NP(=O)(N1CC1)N1CC1)c1cc(I)ccc1I` yielded a lipophilicity (logP) of 1.35.

With `CCOC(=O)NC1=C(N2CC2)C(=O)C(NC(=O)OCC)=C(N2CC2)C1=O`, the logP was found to be 0.05.

`c1ccc(-n2cnnn2)cc1`: the logP turned out to be 1.09.

Molecule `O=C1C=CC(=NCl)C=C1` showed a logP of 1.26.

In turn, `COc1ccc2cnccc2c1` came in with a lipophilicity (logP) of 2.22.

As to `O=C(Nc1ccccc1)C(F)(F)F`, the log partition coefficient (logP) turned out to be 2.21.

In turn, `CCOC(=O)C(=Cc1ccc(Cl)cc1)C(C)=O` registered a lipophilicity (logP) of 3.04.

The molecule `O=C1C=CC(=NBr)C=C1` had a log partition coefficient (logP) of 1.12.

In the case of `CCC(C)c1ccccc1O` (stereo unspecified), the logP came out at 3.27.

`CCOC(=O)C(=Cc1ccc(Cl)c(Cl)c1)C(C)=O` returned a logP of 3.92.

Consider `Cc1c([N+](=O)[O-])cc(C(N)=O)cc1[N+](=O)[O-]`, for which the log partition coefficient (logP) was 0.68.

Regarding `CCCOc1cccc(C=C(C(C)=O)C(=O)OCC)c1`, the logP stood at 3.34.

`CCOC(=O)C(=Cc1ccccc1)C(C)=O` yielded a logP of 2.21.

`Brc1cccc(Br)c1`: the logP came out at 3.75.

For the molecule `CCCCOC1NC(=O)NC(=O)C1=[N+]=[N-]` (stereo unspecified), the log partition coefficient (logP) is -0.55.

`Cn1ccc(=O)c2ccccc21` had a log partition coefficient (logP) of 0.44.

`CCC1OC(=O)C(C)C(OC2CC(C)(O)C(C)O2)C(C)C(OC2OC(C)C(O)C(N(C)C)C2O)C(C)(O)CC(C)C(=O)C(C)C(O)C1(C)O` (stereo unspecified) came in with a logP of 1.44.

`CC(=O)Nc1cccc(I)c1`: the lipophilicity (logP) is 2.64.

With `c1ccc(SSc2ccccc2)cc1`, the logP stood at 4.41.

For `O=C(O)c1csc(C=Cc2ccc([N+](=O)[O-])o2)n1`, the lipophilicity (logP) is -0.03.

Regarding `CNP(=O)(OC)Oc1cc(Cl)c(Cl)cc1Cl` (stereo unspecified), the logP turned out to be 3.06.

`CN(C)C(=O)N(c1ccccc1)c1ccccc1`: the logP amounted to 2.8.

The molecule `COc1ccc2c(c1)N(CCCN(C)C)c1ccccc1S2` registered a log partition coefficient (logP) of 4.46.

Turning to `CN(C)/N=N/c1cccc(Cl)c1`, the log partition coefficient (logP) was 3.44.

Turning to `CN(C)c1ccc(N=C2C=CC(=O)C=C2)cc1`, the logP turned out to be 2.02.

`O=C(Nc1ccc(Cl)c(Cl)c1)C1CCCC1` came in with a log partition coefficient (logP) of 4.47.

In the case of `CCOP(=O)(N=C1SCC(C)S1)OCC` (stereo unspecified), the logP turned out to be 1.04.

Molecule `O=S1(=O)NC(C2=CCCC2)=Nc2ccccc21` showed a log partition coefficient (logP) of 1.69.

In the case of `CCC(C)NC(=O)C(=Cc1ccccc1)Cc1ccccc1` (stereo unspecified), the lipophilicity (logP) turned out to be 3.99.

As for `C=CCN(C)/N=N/c1ccc(C(N)=O)cc1`, the logP was found to be 2.09.

With `CN(C)CCN(C)C`, the log partition coefficient (logP) worked out at 0.3.

`O=S1(=O)NC(C2CCCCC2)=Nc2ccccc21` gave a log partition coefficient (logP) of 2.2.

In turn, `O=C(O)COc1ccc(Cl)c(Br)c1` came in with a lipophilicity (logP) of 2.75.

Molecule `CC(C)Oc1ccccc1O` showed a log partition coefficient (logP) of 2.09.

`CN(C)C(=O)Nc1ccc(OCc2ccc(Cl)cc2Cl)cc1` came in with a logP of 4.1.

`Cc1c(-c2ccccc2)oc2ccccc2c1=O`: the log partition coefficient (logP) is 3.92.

`CNP(=O)(OC)Oc1ccc(C(C)(C)C)cc1` (stereo unspecified) came in with a logP of 2.71.

Regarding `O[C@@H]1CCCC[C@H]1O`, the logP turned out to be 0.08.

`O=c1cc2ccccc2n[nH]1` showed a lipophilicity (logP) of 0.68.

For `CC(N)=S`, the logP is -0.26.

`CCOC(=O)C(=Cc1cccc(C)c1)C(=O)OCC` showed a logP of 3.55.

In turn, `O=[N+]([O-])c1cccc2ncccc12` yielded a logP of 1.86.

Regarding `CC(C)C(=O)Nc1ccccc1`, the logP was 1.95.

In the case of `O=S1(=O)NC(c2ccccc2)=Nc2ccccc21`, the logP amounted to 1.78.

The molecule `Cc1ccc([N+]([O-])=NC#N)cc1` came in with a log partition coefficient (logP) of 2.39.

As to `ON=C(c1ccccc1)c1ccccc1`, the lipophilicity (logP) turned out to be 3.2.

Turning to `NC(=O)c1cccc(N)c1`, the log partition coefficient (logP) was -0.33.

Molecule `COc1cc(C=NO)ccc1OCCOC(=O)c1cccc(Cl)c1` showed a log partition coefficient (logP) of 3.94.

`CCC1(c2ccccc2)CCC(=O)NC1=O` (stereo unspecified) registered a logP of 1.9.

`C[C@]12CCC(=O)C=C1CC[C@@H]1[C@@H]2CC[C@]2(C)C(=O)CC[C@@H]12` yielded a logP of 2.75.

Regarding `CCCCCCOC(=O)c1ccc(O)cc1`, the logP was determined as 4.35.

The same series, now with this note: pH 1.0.
The molecule `CCc1ccccc1OCC(=O)O` came in with a log distribution coefficient (logD) of 2.53.

Turning to `O=C(O)c1cccc([N+](=O)[O-])c1C(=O)O`, the logD came to 0.75.

Staying with this series, now noted: pH 3.0.
In the case of `Cn1c(SCC2=C(C(=O)O)N3C(=O)C(NC(=O)Cc4cccs4)C3SC2)nnc(O)c1=O` (stereo unspecified), the logD is -0.52.

In the case of `CC(=O)OCC1=C(C(=O)O)N2C(=O)[C@@H](NC(=O)CBr)[C@H]2SC1`, the logD is -0.7.

Staying with this series, now noted: pH 7.0.
Regarding `CN1CC(C)(C)C(=O)c2ccccc21`, the pH-dependent lipophilicity (logD) turned out to be 2.72.

Staying with this series, now noted: pH 7.2.
On to `CO/N=C(/C(=O)N[C@@H]1C(=O)N2C(C(=O)OC(C)OC(C)=O)=C(COC(N)=O)CS[C@@H]12)c1ccco1` (stereo partly specified), for which the logD worked out at 0.89.

Staying with this series, now noted: pH 7.4.
With `OC[C@H]1O[C@@H](n2cnc3c(=S)nc[nH]c32)[C@H](O)[C@@H]1O`, the logD is -0.6.

The molecule `CC(=O)OC[C@]12CCC(C)=C[C@H]1O[C@@H]1[C@H](O)[C@@H](OC(C)=O)[C@@]2(C)[C@]12CO2` returned a logD of 0.91.

`Nc1n[nH]c(N)n1`: the logD is -1.61.

The series is the same for the next values; noted with them: pH 8.7.
Turning to `CN1CCC(CN2c3ccccc3Sc3ccccc32)C1` (stereo unspecified), the logD worked out at 3.87.

The series is the same for the next values; noted with them: pH 9.0.
For `NN1CCCCC1`, the logD was -0.28.

Still in this series, the particulars now being: pH 11.0.
Consider `CCCCNCc1cccnc1`, for which the logD was determined as 1.34.

The molecule `CCNCc1cccnc1` returned a logD of 0.76.

The same series, now with this note: pH 12.3.
For `CCC[C@H]1CN[C@H](C(=O)N[C@@H]([C@H]2O[C@H](SC)[C@H](O)[C@@H](O)[C@H]2O)[C@H](C)Cl)C1`, the logD came out at 1.69.

Staying with this series, now noted: pH 13.0.
On to `COc1cc(Cc2cnc(N)nc2N)cc(OC)c1N(C)C`, for which the logD turned out to be 1.51.

Take `COC(OC)(OC)c1ccccc1`: the logD was 2.27.

For the molecule `CC1(C)N=C(N)N=C(N)N1c1ccc(F)cc1`, the log distribution coefficient (logD) came out at 0.37.

Turning to `CC1(C)N=C(N)N=C(N)N1c1cccc(C#N)c1`, the logD was -0.24.

Consider `CC(=O)c1ccc(N2C(N)=NC(N)=NC2(C)C)cc1`, for which the logD is -0.04.

In the case of `CN(Cc1ccccc1)c1ccccc1`, the logD came out at 4.22.

Consider `CCOc1cc(Cc2cnc(N)nc2N)cc(OCC)c1`, for which the logD is 2.52.
